Data taken from publication PMC2362906, “Effects of new 17α-hydroxylase/C17,20-lyase inhibitors on LNCaP prostate cancer cell growth in vitro and in vivo” (British Journal of Cancer, 1999).

Assays:
[1] = tested on: LNCaP cells; assay: DHT-stimulated wild-type LNCaP cell growth; assay type: cell-based, human; details: 0.03 nM DHT, 9 days
Description: (§1) Prostate cancer is the most common malignancy and the second leading cause of cancer-related deaths among men in the US and the UK (Shibata et al, 1998). […] Steroidal 17-hydroxylase/C17,20 -lyase (P450c17) (EC 1.14.99.0) was selected as the target enzyme for inhibition, as this is a key regulatory enzyme of androgen synthesis. P450c17 catal- yses two sequential reactions in the steroid biosynthetic pathway and converts pregnenolone and progesterone to the C-19 andro- gens, dehydroepiandrosterone and androstenedione respectively. This enzyme has an identical amino acid sequence in testicular and adrenal tissues (Chung et al, 1987). […] In order to evaluate the effectiveness of these inhibitors we developed a multi-step system, which utilized the LNCaP human prostate cancer cell line. LNCaP cells remain the only androgen receptor (AR)-positive prostate cancer cell line, that can be readily grown in tissue culture (Horoszewicz et al, 1983). These cells respond to androgens with increased cell proliferation and elevated expression of prostate specific antigen (PSA) (Berns et al, 1993). LNCaP cells at early passages are not only androgen-responsive, but also androgen- dependent (Pousette et al, 1997). This is similar to the situation in most tumours of prostatic cancer patients, which are initially highly responsive and dependent on androgens. […] Therefore, we employed LNCaP cells as a model for evaluating the effectiveness of our new inhibitors of androgen synthesis. In this study the compounds selected for evaluation were two groups of azolyl steroids. […] Here we report on the application of LNCaP-CYP17-transfected cells for determining the inhibitory potencies of the new compounds against the P450c17 enzyme. […] We designed and evaluated two groups of azolyl steroids: 5-non-competitive inhibitors (5NCIs), VN/63-1, VN/85-1, VN/87-1 and their corresponding 4 derivatives (4NCIs), VN/107-1, VN/108-1 and VN/109-1. The human P450c17 gene was transfected into LNCaP human prostate cancer cells, and the resultant LNCaP- CYP17 cells were utilized to evaluate the inhibitory potency of the new azolyl steroids. […] We further evaluated our inhibitors in male severe combined immuno- deficient mice bearing LNCaP tumour xenografts. […] We also utilized wild-type LNCaP prostatic carcinoma cells for evaluating the direct effects of new azolyl steroids on proliferation of these cells in vitro and in vivo. MATERIALS AND METHODS Materials The human prostate cancer cell line LNCaP was obtained from the American Type Culture Collection (Rockville, MD, USA). RPMI- 1640 medium, trypsin-EDTA (0.25%/0.02%), penicillin/strepto- mycin (P/S), geniticin (G418), and LipofectAMINE were from Gibco-BRL (Grand Island, NY, USA). Fetal bovine serum (FBS) was obtained from Summit Biotechnology Inc. (Fort Collins, CO, USA) and steroid-free FBS was prepared as described previously (Klus et al, 1996). Phenol red free IMEM and trypsin-versine were purchased from Biofluids Inc. (Rockville, MD, USA). Chloroform and acetonitrile were purchased from JT Baker, Inc (Phillipsburg, NJ, USA). Hydroxypropyl cellulose (HPC) was purchased from Sigma Chemical Co. (St Louis, MO, USA). The PSA enzyme- linked immunusorbent assay (ELISA) kit was from DSL Inc. (Webster, TX, USA). Matrigel was generously supplied by Dr Hynda Kleinman (NIH, Bethesda, MD, USA). Inhibitors of androgen synthesis: VN/63-1, VN/85-1, VN/87-1, VN/107-1, VN/108-1 and VN/109-1 were synthesized in our labo- ratory as previously described (Njar et al, 1998). […] Metribolone [17-methyl-3 H]-R1881 ([3 H]-R1881: specific activity 86 Ci mmol-1 ) was purchased from Dupont NEN (Boston, MA, USA).

[2] = target: T1, human 17α-hydroxylase/C17,20-lyase (P450c17) expressed in LNCaP-CYP17 cells (Homo sapiens, UniProt P05093); assay: [3H]-acetic acid releasing assay (AARA) with LNCaP-CYP17 cells; assay type: cell-based; details: for IC50: LNCaP-CYP17 cells, 7 μM [21-3H]17-OHP5, 16 h, mean ± s.e.m., three experiments
T1 sequence (P05093 9-508 limits assumed): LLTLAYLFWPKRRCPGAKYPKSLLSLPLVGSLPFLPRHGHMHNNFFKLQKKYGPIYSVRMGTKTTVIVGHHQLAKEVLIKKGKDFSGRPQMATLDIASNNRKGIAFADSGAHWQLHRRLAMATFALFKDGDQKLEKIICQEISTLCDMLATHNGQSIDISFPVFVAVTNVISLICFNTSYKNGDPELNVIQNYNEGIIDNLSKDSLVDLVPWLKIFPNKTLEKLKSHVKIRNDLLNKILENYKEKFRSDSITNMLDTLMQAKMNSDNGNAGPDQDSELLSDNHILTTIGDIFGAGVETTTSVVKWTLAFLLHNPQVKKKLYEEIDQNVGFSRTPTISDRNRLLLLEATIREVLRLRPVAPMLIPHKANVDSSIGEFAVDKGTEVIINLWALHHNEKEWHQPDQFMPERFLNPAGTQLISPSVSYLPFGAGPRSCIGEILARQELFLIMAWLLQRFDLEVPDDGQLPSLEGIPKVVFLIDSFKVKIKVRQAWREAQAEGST

[3] = tested on: LNCaP cells; assay: Testosterone-stimulated wild-type LNCaP cell growth; assay type: cell-based, human; details: 0.1 nM testosterone; for Concentration that completely inhibited the growth stimulatory effect of testosterone: 9 days
Description: as §1

[4] = tested on: LNCaP tumour xenografts; assay: LNCaP tumour xenograft growth in male SCID mice; assay type: in vivo; details: 50 mg kg-1 day-1, 28 days
Description: as §1

[5] = tested on: serum testosterone; assay: Serum testosterone (RIA) in SCID mice; assay type: in vivo, male SCID mice; details: 28 days of treatment, 50 mg kg-1 day-1
Description: as §1

[6] = tested on: serum DHT; assay: Serum DHT (RIA) in SCID mice; assay type: in vivo, male SCID mice; details: 28 days of treatment, 50 mg kg-1 day-1
Description: as §1

[7] = target: human prostatic 5-reductase; parameters: method as in Njar et al, 1998; details: human prostatic microsomes; reported previously; ref Njar et al, 1998; cited from earlier work
[8] = tested on: serum PSA; assay: Serum PSA (ELISA) in LNCaP tumour-bearing SCID mice; assay type: in vivo, male SCID mice; details: first experiment, 50 mg kg-1 day-1, 28 days
Description: Prostate cancer is the most common malignancy and the second leading cause of cancer-related deaths among men in the US and the UK (Shibata et al, 1998). […] Steroidal 17-hydroxylase/C17,20 -lyase (P450c17) (EC 1.14.99.0) was selected as the target enzyme for inhibition, as this is a key regulatory enzyme of androgen synthesis. P450c17 catal- yses two sequential reactions in the steroid biosynthetic pathway and converts pregnenolone and progesterone to the C-19 andro- gens, dehydroepiandrosterone and androstenedione respectively. This enzyme has an identical amino acid sequence in testicular and adrenal tissues (Chung et al, 1987). […] In order to evaluate the effectiveness of these inhibitors we developed a multi-step system, which utilized the LNCaP human prostate cancer cell line. LNCaP cells remain the only androgen receptor (AR)-positive prostate cancer cell line, that can be readily grown in tissue culture (Horoszewicz et al, 1983). These cells respond to androgens with increased cell proliferation and elevated expression of prostate specific antigen (PSA) (Berns et al, 1993). LNCaP cells at early passages are not only androgen-responsive, but also androgen- dependent (Pousette et al, 1997). This is similar to the situation in most tumours of prostatic cancer patients, which are initially highly responsive and dependent on androgens. […] Therefore, we employed LNCaP cells as a model for evaluating the effectiveness of our new inhibitors of androgen synthesis. In this study the compounds selected for evaluation were two groups of azolyl steroids. […] Here we report on the application of LNCaP-CYP17-transfected cells for determining the inhibitory potencies of the new compounds against the P450c17 enzyme. […] We designed and evaluated two groups of azolyl steroids: 5-non-competitive inhibitors (5NCIs), VN/63-1, VN/85-1, VN/87-1 and their corresponding 4 derivatives (4NCIs), VN/107-1, VN/108-1 and VN/109-1. The human P450c17 gene was transfected into LNCaP human prostate cancer cells, and the resultant LNCaP- CYP17 cells were utilized to evaluate the inhibitory potency of the new azolyl steroids. […] We further evaluated our inhibitors in male severe combined immuno- deficient mice bearing LNCaP tumour xenografts. […] We also utilized wild-type LNCaP prostatic carcinoma cells for evaluating the direct effects of new azolyl steroids on proliferation of these cells in vitro and in vivo. MATERIALS AND METHODS Materials The human prostate cancer cell line LNCaP was obtained from the American Type Culture Collection (Rockville, MD, USA). RPMI- 1640 medium, trypsin-EDTA (0.25%/0.02%), penicillin/strepto- mycin (P/S), geniticin (G418), and LipofectAMINE were from Gibco-BRL (Grand Island, NY, USA). Fetal bovine serum (FBS) was obtained from Summit Biotechnology Inc. (Fort Collins, CO, USA) and steroid-free FBS was prepared as described previously (Klus et al, 1996). Phenol red free IMEM and trypsin-versine were purchased from Biofluids Inc. (Rockville, MD, USA). Chloroform and acetonitrile were purchased from JT Baker, Inc (Phillipsburg, NJ, USA). Hydroxypropyl cellulose (HPC) was purchased from Sigma Chemical Co. (St Louis, MO, USA). The PSA enzyme- linked immunusorbent assay (ELISA) kit was from DSL Inc. (Webster, TX, USA). Matrigel was generously supplied by Dr Hynda Kleinman (NIH, Bethesda, MD, USA). […]

C[C@]12CCC(=O)C[C@@H]1CC[C@@H]1[C@@H]2CC[C@]2(C)[C@@H](O)CC[C@@H]12 [DHT, Dihydrotestosterone, reference compound]
Stimulation of LNCaP cell proliferation compared to vehicle-treated cells [1]: 3.2 fold

C[C@]12CC[C@H](O)CC1=CC[C@@H]1[C@@H]2CC[C@]2(C)C(n3cncn3)=CC[C@@H]12 [VN/63-1]
IC50 [2]: 47.1 nM | Concentration that completely inhibited the growth stimulatory effect of testosterone [3]: 1.0 µM | Concentration that completely blocked DHT stimulation [1]: 1.0 µM | Effect on tumour growth (words) ([4]; second experiment): Neither VN/63-1, VN/107 nor ketoconazole had any appreciable effects | Serum Testosterone ([5]; Table 3, second experiment, control 0.205): 0.146 ng/mL | Serum DHT ([6]; Table 3, second experiment, control 239.2): 189.7 pg/mL | IC50 [7]: > 5000 nM

CC(C)C(=O)Nc1ccc([N+](=O)[O-])c(C(F)(F)F)c1 [Flutamide, reference compound]
IC50 [2]: > 5000 nM | Inhibition of testosterone stimulated cell growth ([3]; compound at 2.5 and 5.0 μM): ~ 50% | Stimulation of cell growth compared to DHT-treated cells [1]: 10-20%

C[C@]12CC[C@H](O)CC1=CC[C@@H]1[C@@H]2CC[C@]2(C)C(n3ccnc3)=CC[C@@H]12 [VN/85-1]
IC50 [2]: 1.25 ± 0.44 nM | Concentration that completely inhibited the growth stimulatory effect of testosterone [3]: 1.0 µM | Concentration that completely blocked DHT stimulation [1]: 1.0 µM | Reduction of tumour weights compared to vehicle-treated mice ([4]; first experiment): 27% | Serum PSA levels versus control [8]: significantly lower | Serum Testosterone ([5]; Table 2, first experiment, control 1.043): 0.141 ng/mL | Serum DHT ([6]; Table 2, first experiment, control 243.8): 143.7 pg/mL | IC50 [7]: > 5000 nM

CC(=O)[C@@]1(O)CC[C@H]2[C@@H]3CC=C4C[C@@H](O)CC[C@]4(C)[C@H]3CC[C@@]21C [[213 H]17-hydroxypregnenolone, [21-3 H]17-Hydroxypregnenolone, reference compound]
Km ([2]; substrate 0.5-20 μM, 16 h, 37C, RADLIG software): 0.87 µM
